Patent publication US9266922B2, “Antigen peptide and uses thereof” (priority 2011, dated 2016)
Like-named read-outs stand apart in the source and are kept apart here. Residues, ends and D or L forms follow the SMILES beside them.

Legend:
HLA-A*0201 [1] = biological target: T1, HLA-A*0201 (Homo sapiens, UniProt P04439, D140Y/D185E/D98H/E176V/E277Q/G131W/G231S/I119V/I121R/I166T/I218V/L300P/L318F/N151K/N90K/P208A/P217A/Q86G/Q94H/R138H/R169H/T345S); assay: iScore calculation (iTOPIA system software); details: multiparametric score of binding, off-rate and affinity
[2] = biological target: T2, HLA A*0201 on CEM.T2 cell line (Homo sapiens, UniProt P04439, D140Y/D185E/D98H/E176V/E277Q/G131W/G231S/I119V/I121R/I166T/I218V/L300P/L318F/N151K/N90K/P208A/P217A/Q86G/Q94H/R138H/R169H/T345S); assay: Cellular binding assay, HLA stabilization on CEM.T2 cells; format: cell-based; details: for CEM.T2 % Binding: 100 μM peptide, 37° C. for 4 h, FACS anti HLA-A2, relative to HBV positive control peptide
T2 construct: This cell line expresses HLA A*0201 but is deficient for TAP transporter; endogenous in cells; host or cells: CEM.T2 (T2) cell line
Description: The CEM.T2 cell line (T2) is defective in the processing of proteins for presentation by MHC class 1 molecules. This cell line expresses HLA A*0201 but is deficient for TAP transporter. T2 is classically used to assess the Peptide/HLA-A*0201 Complex Stability[H. W. Nijman et al., 1993]
For HLA-A2*0201 stabilization, T2 cells (2×10^5/well) were incubated in serum-free RPMI (Gibco®-France) with 100 μM of selected peptide, at 37° C. for 4 h. Cells were washed two times with PBS supplemented with 1% BSA and stained with fluorescein isothiocyanate-conjugated anti HLA-A2 (Clone BB7.2) (BD Bioscience Pharmingen-France-) at 4° C. for 45 min. After 3 washes, cells were fixed in PBS supplemented with 2% paraformaldehyde and analyzed by FACS (FACScan, BD Bioscience). The percentage of peptide binding was calculated as follows: % Binding={(MFI peptide sample−MFI Neg control)/(MFI Pos control−MFI Neg control)}×100
Negative control was done without peptide.

HLA-A*0201 [3] = biological target: T1, HLA-A*0201; assay: iTOPIA EDS MHC peptide binding assay; details: HLA-A*0201 monomer, relative to positive control peptide, 21° C. for 18 h
Excerpt: MHC peptide binding assay using iTOPIA EDS
Microtiter 96 well plates containing HLA class I MHC monomer loaded with the human β2-microglobulin and a “placeholder” peptide were used to evaluate peptide binding, affinity, and off-rate.
The 502 nectin4 nonapeptides were first evaluated for their ability to bind to each MHC molecule in the peptide binding assay. In this assay, the placeholder peptides were stripped from the MHC class I monomer complexes coated on plastic, which leaves the MHC class I heavy chain available as a binding partner for candidate peptides in the presence of human β2-microglobulin.
Peptide binding was performed at 21° C. for 18 h. Revelation was done using an anti HLA-ABC-FITC mAb that binds to refolded MHC complex conformation. The relative fluorescent intensity was read using a fluorimeter (Molecular Devices, SpectraMax Gemini, Sunnyvale, Calif., USA).
Peptides with a binding>30% of the positive control peptide were selected as “binder” and subsequently analyzed for affinity (ED50) and off-rate (T1/2).

HLA-A*2402 = HLA-A*2402 (Homo sapiens, UniProt P04439, D101N/D140Y/D185E/E176V/E190D/F33S/G103R/G107R/I119L/I121M/I306V/K335N/L105A/L180Q/L300P/N151K/N90K/Q86E/Q94H/R106L/R138H/R89G/T104I/T345S/V100E/W191G/Y123F); assay: iTOPIA EDS and […] analyses (FIG. 5B); format: binding; details: iTOPIA EDS and SYFPEITHI
Description: (§1) A library of 502 nonapeptides which span the entire 510 amino acid sequence of human nectin4, was synthesized (JPT Peptide Technologies GmbH, Berlin Germany). A series of 9 peptides described in the literature was selected and used as reference (Table 1). Peptides (purity >80%) were dissolved in DMSO at a concentration of 10 mM and stored at −20° C. Specific control peptides for each allele were supplied by the manufacturer of the iTOPIA Epitope Discovery System (EDS) (Beckman Coulter Inc., San Diego, Calif., USA). The 502 peptides were tested for binding to eight alleles (HLA-A*0101; HLA-A*0201; HLA-A*0301; HLA-A*1101; HLA-A*2402; […]; HLA-B*0801; HLA-B*1501) with the iTOPIA EDS.

HLA-A*0201 [4] = biological target: T1, HLA-A*0201; assay: iTOPIA EDS and […] analyses (FIG. 5B); format: binding; details: iTOPIA EDS and SYFPEITHI
Description: as §1

HLA-B*1501 = HLA-B*1501 (Homo sapiens, UniProt P01889, A329T/A93T/A95T/C349S/D201E/D98Y/E187L/E204Q/E69M/E70A/K202T/N87E/Q94N/R155S/R180W/S121R/S35A/S48A/V306I/V36M/Y140S/Y91S); assay: iTOPIA EDS and […] analyses (FIG. 5B); format: binding; details: iTOPIA EDS and SYFPEITHI
Description: as §1

HLA-A*0201 [5] = biological target: T1, HLA-A*0201; assay: biochemical; format: binding
[6] = tested on: MDA-MB-231 breast carcinoma cell line; assay: CTL cytotoxicity, 4 h 51Cr-release assay; format: cell-based, human; details: FIG. 4D
[7] = biological target: T2, HLA A*0201 on CEM.T2 cell line; assay: Cellular dissociation assay on CEM.T2 cells; format: cell-based; details: after Brefeldin A 1 h and 3 h in serum-free RPMI at 37° C. (4 h)
Description: Cellular Dissociation Assay
After HLA-A2*0201 stabilization with peptides at 37° C. for 4 h, T2 cells were incubated for 1 h, in serum-free RPMI containing Brefeldin A (10 μg/ml), an inhibitor of the transport of secretory and lysosomal proteins [G. J. Strous et al., 1993]. After 3 washes, T2 cells were incubated for 3 h in serum-free RPMI at 37° C. Binding was then measured by FACS and after 4 h incubation. Percentage of Residual Binding (% RB) was calculated as follows: […]

[8] = peptide concentration giving 50% of optimal binding, 10^−4 to 10^−9 M, 21° C. for 18 h, read-out: Affinity (ED50)

CC(C)C[C@H](NC(=O)[C@H](CO)NC(=O)[C@@H]1CCCN1C(=O)[C@H](CC(C)C)NC(=O)[C@@H]1CCCN1C(=O)[C@@H]1CCCN1C(=O)[C@@H](NC(=O)[C@H](CC(C)C)NC(=O)[C@@H](N)C(C)C)C(C)C)C(=O)O [Peptide 145] (H-VLVPPLPSL-OH; N-terminus and C-terminus assumed)
iScore (HLA-A*0201 [1]): 0.783
HLA-A*0201 class I level on T2 cells ([2]; flow cytometry, FIG. 3A and 3B): increase the HLA-A*0201 class I level on T2 cells
% Binding (HLA-A*0201 [3]): 67%
binder class for HLA-A*2402 (HLA-A*2402): strong binder
binder class for HLA-A*0201 (HLA-A*0201 [4]): strong binder
binder class for HLA-B*1501 (HLA-B*1501): strong binder
EC50 (HLA-A*0201 [5]; Affinity (ED50)): 500 nM
EC50 (HLA-A*0201 [5]; estimated dose to reach 50% maximal binding (ED50)): ~100 nM
lysis by peptide-specific CTL of MDA-MB-231 cell line expressing nectin4 ([6]; CTL isolated with HLA-A2/peptide tetramer, target not peptide loaded): able to kill the MDA-MB-231 cell line expressing nectin4
lysis by peptide-specific CTL of wild-type MDA-MB-231 cells ([6]; nectin4 negative HLA-A*0201 target): not the wild-type MDA-MB-231 cells

CC(C)C[C@H](N)C(=O)N[C@H](C(=O)N[C@@H](CO)C(=O)N[C@@H](C)C(=O)N[C@@H](CO)C(=O)N[C@H](C(=O)N[C@H](C(=O)N[C@H](C(=O)N[C@H](C(=O)O)C(C)C)C(C)C)C(C)C)C(C)C)C(C)C [Peptide 345] (H-LVSASVVVV-OH; N-terminus and C-terminus assumed)
iScore (HLA-A*0201 [1]): 0.626
CEM.T2 % Binding [2]: 11%
% Binding (HLA-A*0201 [3]): 51%
CEM.T2 % Residual Binding [7]: 0%
EC50 (HLA-A*0201 [5]; [8]): 60 nM

CC(C)[C@H](NC(=O)CNC(=O)[C@@H](NC(=O)[C@@H](NC(=O)[C@@H](NC(=O)[C@@H](NC(=O)[C@H](CO)NC(=O)[C@H](C)NC(=O)[C@@H](N)CO)C(C)C)C(C)C)C(C)C)C(C)C)C(=O)O [Peptide 347] (H-SASVVVVGV-OH; N-terminus and C-terminus assumed)
iScore (HLA-A*0201 [1]): 0.708
CEM.T2 % Binding [2]: 40%
% Binding (HLA-A*0201 [3]): 64%
CEM.T2 % Residual Binding [7]: 0%
EC50 (HLA-A*0201 [5]; [8]): 200 nM

CC[C@H](C)[C@H](NC(=O)[C@@H](NC(=O)CN)C(C)C)C(=O)N[C@@H](C)C(=O)N[C@@H](C)C(=O)N[C@@H](CC(C)C)C(=O)N[C@@H](CC(C)C)C(=O)N[C@@H](Cc1ccccc1)C(=O)N[C@@H](CS)C(=O)O [Peptide 354] (H-GVIAALLFC-OH; N-terminus and C-terminus assumed)
iScore (HLA-A*0201 [1]): 0.845
CEM.T2 % Binding [2]: 10%
% Binding (HLA-A*0201 [3]): 61%
CEM.T2 % Residual Binding [7]: 0%
EC50 (HLA-A*0201 [5]; [8]): 90 nM

CC[C@H](C)[C@H](NC(=O)[C@@H](N)C(C)C)C(=O)N[C@@H](C)C(=O)N[C@@H](C)C(=O)N[C@@H](CC(C)C)C(=O)N[C@@H](CC(C)C)C(=O)N[C@@H](Cc1ccccc1)C(=O)N[C@@H](CS)C(=O)N[C@@H](CC(C)C)C(=O)O [Peptide 355] (H-VIAALLFCL-OH; N-terminus and C-terminus assumed)
iScore (HLA-A*0201 [1]): 0.888
CEM.T2 % Binding [2]: 18%
% Binding (HLA-A*0201 [3]): 59%
CEM.T2 % Residual Binding [7]: 24%
EC50 (HLA-A*0201 [5]; [8]): 30 nM

CC(C)C[C@H](NC(=O)[C@H](C)NC(=O)[C@H](C)N)C(=O)N[C@@H](CC(C)C)C(=O)N[C@@H](Cc1ccccc1)C(=O)N[C@@H](CS)C(=O)N[C@@H](CC(C)C)C(=O)N[C@@H](CC(C)C)C(=O)N[C@H](C(=O)O)C(C)C [Peptide 357] (H-AALLFCLLV-OH; N-terminus and C-terminus assumed)
iScore (HLA-A*0201 [1]): 0.619
CEM.T2 % Binding [2]: 15%
% Binding (HLA-A*0201 [3]): 56%
CEM.T2 % Residual Binding [7]: 18%
EC50 (HLA-A*0201 [5]; [8]): 100 nM

CC(C)C[C@H](NC(=O)[C@H](C)N)C(=O)N[C@@H](CC(C)C)C(=O)N[C@@H](Cc1ccccc1)C(=O)N[C@@H](CS)C(=O)N[C@@H](CC(C)C)C(=O)N[C@@H](CC(C)C)C(=O)N[C@H](C(=O)N[C@H](C(=O)O)C(C)C)C(C)C [Peptide 358] (H-ALLFCLLVV-OH; N-terminus and C-terminus assumed)
iScore (HLA-A*0201 [1]): 0.71
CEM.T2 % Binding [2]: 26%
% Binding (HLA-A*0201 [3]): 53%
CEM.T2 % Residual Binding [7]: 26%
EC50 (HLA-A*0201 [5]; [8]): 200 nM

CC(C)C[C@H](NC(=O)[C@H](CS)NC(=O)[C@H](Cc1ccccc1)NC(=O)[C@H](CC(C)C)NC(=O)[C@@H](N)CC(C)C)C(=O)N[C@@H](CC(C)C)C(=O)N[C@H](C(=O)N[C@H](C(=O)N[C@H](C(=O)O)C(C)C)C(C)C)C(C)C [Peptide 359] (H-LLFCLLVVV-OH; N-terminus and C-terminus assumed)
iScore (HLA-A*0201 [1]): 0.674
CEM.T2 % Binding [2]: 7%
% Binding (HLA-A*0201 [3]): 67%
CEM.T2 % Residual Binding [7]: 23%
EC50 (HLA-A*0201 [5]; [8]): 500 nM

CC(C)C[C@H](NC(=O)[C@@H](NC(=O)[C@H](CO)NC(=O)[C@H](Cc1ccc(O)cc1)NC(=O)[C@H](CO)NC(=O)[C@@H](N)CCCNC(=N)N)[C@@H](C)O)C(=O)N[C@H](C(=O)N[C@H](C(=O)N[C@H](C(=O)O)C(C)C)[C@@H](C)O)[C@@H](C)O [Peptide 443] (H-RSYSTLTTV-OH; N-terminus and C-terminus assumed)
iScore (HLA-A*0201 [1]): 0.521
CEM.T2 % Binding [2]: 37%
% Binding (HLA-A*0201 [3]): 68%
CEM.T2 % Residual Binding [7]: 0%
EC50 (HLA-A*0201 [5]; [8]): 300 nM
